In patent publication US20100105673A1, “SUBSTITUTED AMINOFURANONES AND THEIR USE” (priority 2006, published 2010):

molecular target: T1, HIV-1 protease wild type protein (Human immunodeficiency virus type 1 group M subtype B, UniProt P04585); experiment: Biochemical Protease Assay
T1 construct: 20 μl of 0.2−1 nM HIV-1 protease wild type or mutant protein; purchased AscoProt Biotech, Prague, Czech Republic
Protocol: For the determination of their in vitro activity on HIV protease the test substances are dissolved in DMSO and serially diluted. In each case 0.5 μl of substance dilution, 20 μl of 0.2−1 nM HIV-1 protease wild type or mutant protein (e.g. multiresistant isolate “35513”: L10I, I15V, L19I, K20R, E35D, M36I, R41K, I54V, L63P, H69K, A71V, T74P, I84V, L89M, L90M, 193L, AscoProt Biotech, Prague, Czech Republic) in buffer 1 (50 mM sodium acetate pH 4.9, 0.02% BSA, 0.1 mM EDTA, 0.5 mM DTT) and 20 μl of 8 μM substrate (M1865 from Bachem, Bubendorf, Switzerland; Matayoshi et al., Science 1990, 247, 954-8) in buffer 1 are added successively to a 384 well microtiter plate (Greiner, Frickenhausen, Germany), incubated for 60-180 minutes at 32° C. and the fluorescence is measured (e.g. Tecan Safire, 340 nm extinction, 520 nm emission). IC50 values are determined by graphical plotting of the substance concentration against the percentage inhibition.

**Q.** How did the IC50 turn out when `Cc1cc(-c2cccc(S(C)(=O)=O)c2)c(Cl)cc1C1=C(N)[C@@]2(CCCN(CC(=O)NCc3ccccc3)C2)OC1=O` (single isomer, unassigned) [Example 82] was run?
**A.** 11 nM

**Q.** How did the IC50 turn out when `Cc1cc(-c2cccc(S(C)(=O)=O)c2)c(Cl)cc1C1=C(N)[C@@]2(CCCN(CC(=O)NCc3cccs3)C2)OC1=O` (single isomer, unassigned) [Example 84] was run?
**A.** 2.5 nM

**Q.** Which IC50 does the source give for `Cc1cc(-c2cccc(NS(=O)(=O)CCN3CCOCC3)c2)c(Cl)cc1C1=C(N)C2(CCCCC2)OC1=O` [Example 20] here?
**A.** 510 nM

**Q.** How did the IC50 turn out when `Cc1cc(-c2cccc(O)c2)c(Cl)cc1C1=C(N)C2(CCCN(CC(=O)NCc3ccccc3)C2)OC1=O` (stereo not drawn) [Example 27] was run?
**A.** 14 nM

**Q.** For `Cc1cc(-c2cccc(S(C)(=O)=O)c2)c(Cl)cc1C1=C(N)C2(CCCN(CC(=O)NCc3cccc(F)c3F)C2)OC1=O` (stereo not drawn) [Example 51], which IC50 is on record?
**A.** 2.6 nM

**Q.** Which IC50 does the source give for `CCC(C)CNC(=O)CN1CCCC2(C1)OC(=O)C(c1cc(Cl)c(-c3cccc(S(C)(=O)=O)c3)cc1C)=C2N` (stereo not drawn) [Example 79] here?
**A.** 85 nM
